Laboratory results taken from patent US9051317B2, “Azaindoles as respiratory syncytial virus antiviral agents” (JANSSEN SCIENCES IRELAND UC, priority 2010, dated 2015).

Legend:
rgRSV224 virus = test: microbe, parasite or virus in culture; format: cell-based, respiratory syncytial virus (RSV); settings: human respiratory syncytial virus, HeLa, 72 h, read-out: WT activity EC50
Experimental: (§1) Black 96-well clear-bottom microtiter plates (Corning, Amsterdam, The Netherlands) were filled in duplicate using a customized robot system with serial 4-fold dilutions of compound in a final volume of 50 μl culture medium [RPMI medium without phenol red, 10% FBS, 0.04% gentamycin (50 mg/mL) and 0.5% DMSO]. Then, 100 μl of a HeLa cell suspension (5×10^4 cells/mL) in culture medium was added to each well followed by the addition of 50 μl rgRSV224 (MOI=0.02) virus in culture medium using a multidrop dispenser (Thermo Scientific, Erembodegem, Belgium). rgRSV224 virus is an engineered virus that includes an additional GFP gene (Hallak et al, 2000) and was in-licensed from the NIH (Bethesda, Md., USA). Medium, virus- and mock-infected controls were included in each test. Cells were incubated at 37° C. in a 5% CO2 atmosphere. Three days post-virus exposure, viral replication was quantified by measuring GFP expression in the cells by a MSM laser microscope (Tibotec, Beerse, Belgium). The EC50 was defined as the 50% inhibitory concentration for GFP expression. In parallel, compounds were incubated for three days in a set of white 96-well microtitier plates (Corning) and the cytotoxicity of compounds in HeLa cells was determined by measuring the ATP content of the cells using the ATPlite kit (PerkinElmer, Zaventem, Belgium) according to the manufacturer's instructions. The CC50 was defined as the 50% concentration for cytotoxicity.

[1] = Cytotoxicity in HeLa cells, ATP content (ATPlite kit); format: cell-based; settings: human, Table 1, three days incubation, read-out: Toxicity CC50
Experimental: as §1

For `CC(C)CCn1c(Cn2c(=O)n(C3CC3)c3ccncc32)cc2cccnc21` [Compound P10, 1-Cyclopropyl-3-{[1-(3-methylbutyl)-1H-pyrrolo[2,3-b]pyridin-2-yl]methyl}-1,3-dihydro-2H-imidazo[4,5-c]pyridin-2-one], the EC50 (rgRSV224 virus) was > 98.4 µM and the CC50 at 3 days [1] was > 98.4 µM.
